Source: patent US6211244A, “Calcium receptor-active compounds” (priority 1995, dated 2001)

Experiments:
human calcium receptor = molecular target: T1, human calcium receptor (Homo sapiens, UniProt P41180, R990G); assay: increases in [Ca^2+ ]i in HEK-293 cells expressing the human calcium receptor (fura-2 loaded HEK 293/pHuPCaR4.0 cells), % activity; type: cell-based
T1 construct: expressed in transfected cells; host or cells: HEK 293
T1 sequence (P41180 20-1078 R990G): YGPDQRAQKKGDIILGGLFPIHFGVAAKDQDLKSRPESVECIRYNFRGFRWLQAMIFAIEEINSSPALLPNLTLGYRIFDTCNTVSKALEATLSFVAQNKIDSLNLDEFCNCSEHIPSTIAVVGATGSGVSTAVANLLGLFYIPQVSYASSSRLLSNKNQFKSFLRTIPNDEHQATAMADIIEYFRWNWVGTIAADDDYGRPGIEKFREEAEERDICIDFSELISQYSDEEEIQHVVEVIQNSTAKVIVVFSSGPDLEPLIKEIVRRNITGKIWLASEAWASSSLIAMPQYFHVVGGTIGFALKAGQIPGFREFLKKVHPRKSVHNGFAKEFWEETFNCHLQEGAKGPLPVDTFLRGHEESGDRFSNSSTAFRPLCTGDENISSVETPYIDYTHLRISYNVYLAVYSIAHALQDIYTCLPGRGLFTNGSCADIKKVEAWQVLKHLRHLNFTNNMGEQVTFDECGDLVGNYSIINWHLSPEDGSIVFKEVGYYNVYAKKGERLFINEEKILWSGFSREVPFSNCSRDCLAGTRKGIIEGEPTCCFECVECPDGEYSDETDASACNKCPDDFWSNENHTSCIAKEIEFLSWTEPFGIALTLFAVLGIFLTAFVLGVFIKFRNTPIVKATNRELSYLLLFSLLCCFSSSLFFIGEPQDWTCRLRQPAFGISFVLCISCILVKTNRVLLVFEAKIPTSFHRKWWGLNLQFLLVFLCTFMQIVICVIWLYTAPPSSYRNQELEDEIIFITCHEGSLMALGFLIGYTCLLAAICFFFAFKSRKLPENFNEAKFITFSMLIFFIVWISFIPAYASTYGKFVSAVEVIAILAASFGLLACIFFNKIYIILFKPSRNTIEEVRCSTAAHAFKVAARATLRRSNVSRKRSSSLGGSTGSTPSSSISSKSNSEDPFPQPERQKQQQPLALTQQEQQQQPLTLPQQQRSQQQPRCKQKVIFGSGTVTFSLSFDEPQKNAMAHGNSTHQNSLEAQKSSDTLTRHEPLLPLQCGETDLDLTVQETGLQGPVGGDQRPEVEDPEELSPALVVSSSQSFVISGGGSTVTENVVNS

[1] = tested on: Parathyroid Cell Calcium Receptor; assay: EC50 in parathyroid cells or HEK 293/pHuPCaR4.0 cells loaded with fura-2; type: cell-based, calves and humans; conditions: parathyroid cells or HEK 293/pHuPCaR4.0, fura-2; cell type not given per value
Procedure: This section describes procedures used to obtain parathyroid cells from calves and humans, and to use the parathyroid cells to measure calcium receptor activity.
Human parathyroid glands, were obtained from patients undergoing surgical removal of parathyroid tissue for primary or uremic hyperparathyroidism (uremic HPT), and were treated similarly to bovine tissue.
Glands were trimmed of excess fat and connective tissue and then minced with fine scissors into cubes approximately 2-3 mm on a side. Dissociated parathyroid cells were prepared by collagenase digestion and then purified by centrifugation in Percoll buffer.
Primary culture also has the advantage that cells can be labeled with isotopes to near isotopic equilibrium, as is necessary for studies involving measurements of inositol phosphate metabolism.
ITS+ is a premixed solution containing insulin, transferrin, selenium, and bovine serum albumin (BSA)-linolenic acid (Collaborative Research, Bedford, Mass.). The cells were then transferred to plastic flasks (75 or 150 cm^2; Falcon) and incubated overnight at 37° C. in a humid atmosphere of 5% CO2. No serum is added to these overnight cultures, since its presence allows the cells to attach to the plastic, undergo proliferation, and dedifferentiate.
The cells were then pelleted, resuspended in the same buffer, but lacking the ester, and incubated a further 15 minutes at 37° C. The cells were subsequently washed twice with PCB containing 0.5 mM CaCl2 and 0.5% BSA and maintained at room temperature (about 20° C.). Immediately before use, the cells were diluted five-fold with prewarmed 0.5 mM CaCl2 -PCB to obtain a final BSA concentration of 0.1%. The concentration of cells in the cuvette used for fluorescence recording was 1-2×10^6 /ml.
The fluorescence of indicator-loaded cells was measured at 37° C. in a spectrofluorimeter (Biomedical Instrumentation Group, University of Pennsylvania, Philadelphia, Pa.) equipped with a thermostated cuvette holder and magnetic stirrer using excitation and emission wavelengths of 340 and 510 nm, respectively. […] To correct the calibration for dye leakage, cells were placed in the cuvette and stirred at 37° C. for 2-3 minutes. The cell suspension was then removed, the cells pelleted, and the supernatant returned to a clean cuvette. […] This estimate was subtracted from the apparent Fmin.
HEK 293 cells transfected with pHuPCaR4.0 were loaded with fura-2 by incubating the cells in Dulbecco's modified Eagle's media buffered with 20 mM HEPES containing about 5 μM […] for one hour at room temperature. Cell were then rinsed with Hank's balanced salt solution buffered with 20 mM HEPES containing 1 mM CaCl2 and 1 mM MgCl2. Compounds to be tested were then added to the cells and fluorescence was measured (excitation and emission wavelengths of 340 and 510 nm, respectively).

human subjects = assay: pharmacological activity in human subjects after oral doses; type: in vivo; conditions: 10-400 mg oral doses
Excerpt: Proper dosing can also be carried out using standard techniques. […] Thus, the glucuronide conjugate of 17Q may be exerting some beneficial effect.

[2] = tested on: human parathyroid cell calcium receptor; assay: stimulation of calcium-activated chloride currents in Xenopus oocytes injected with calcium receptor cRNA; type: cell-based; conditions: calcium-activated chloride current
Procedure: Representative cDNA inserts for both size classes were subcloned into the plasmid vector pBluescript SK. Linearization followed by in vitro transcription using T7 RNA polymerase produced cRNA transcripts. The cRNA transcripts were injected into Xenopus oocytes (150 ng/μl RNA; 50 nl/oocyte) for functional analysis. Following incubation periods of 2-4 days, the oocytes were assayed for the presence of functional calcium receptors. Both clone types gave rise to functional calcium receptors as assessed by the stimulation of calcium-activated chloride currents upon addition of appropriate calcium receptor agonists. […] Thus, both clones encode a functional, human parathyroid cell calcium receptor.
In addition, pHuPCaR4.0 encodes glutamine (Gln) at aa#925 and glycine (Gly) at position 990 whereas pHuPCaR5.2 encodes arg (Arg) at both equivalent positions. The human CaR gene encodes for Gln and Arg, respectively, at these positions. The difference between the pHuPCaR4.0 cDNA compared to human DNA appears to represent a true sequence polymorphism within the human population while the single base change in pHuPCaR5.2 probably reflects a mutation which occurred during its cloning. […] However, it is possible that these two receptor isoforms are functionally and/or pharmacologically distinct.

calcium receptor = conditions: cited from earlier work
[3] = tested on: HuPCaR 5.2 calcium receptor; assay: fluorescence ([Ca^2+ ]i) in HEK 293 cells transfected with Cep4B containing the HuPCaR 5.2 insert; type: cell-based, human; conditions: Ca^2+ 10 mM, Mg^2+ 20 mM; 37° C.
Procedure: Clonal cell lines that stably express the two human and the bovine calcium receptors have been isolated. Calcium receptor cDNAs were subcloned in two different, commercially available expression vectors; pMSG (obtained from Pharmacia) and Cep4B (obtained from Invitrogen). The first vector contains the selectable marker gene for xanthine-guanine phosphoribosyltransferase (gpt) allowing stably transfected cells to overcome the blockade of the purine biosynthetic pathway imposed by addition of 2 μg/ml aminopterin and 25 μg/ml mycophenolic acid. The second vector encodes a gene conferring resistance to the antibiotic hygromycin (used at 200 μg/ml). […]
Cells obtained from the pool of hygromycin selected HEK 293 cells transfected with Cep4B containing the HuPCaR 5.2 insert were plated on collagen coated Aklar squares which had been placed into individual wells of 12-well tissue culture plates. […] Measurements of fluorescence in response to calcium receptor agonists were performed at 37° C. in a spectrofluorimeter using excitation and emission wavelengths of 340 and 510 nm, respectively. For signal calibration, Fmax was determined after addition of ionomycin (40 μM) and the apparent Fmin was determined by addition of 0.3 M EGTA, 2.5 M Tris-HCl; pH 10.

Row | Compound | % activity (human calcium receptor; 33 ng/mL) | % activity (human calcium receptor; 330 ng/mL) | EC50 [1] | pharmacological activity in human subjects (human subjects) | activation of oocyte-expressed calcium receptor [2] | binding site on the calcium receptor (calcium receptor) | increases in [Ca^2+ ]i [3]
1 | COc1cccc([C@@H](C)NCCCc2ccccc2Cl)c1 [NPS R-568, reference compound] | 69% | 95% | 600 nM | showed pharmacological activity in human subjects | activated the oocyte-expressed receptor at about the same concentrations known to be effective for the native parathyroid cell receptor | – | –
2 | COc1cccc([C@@H](C)NCCCc2ccccc2)c1 [NPS R-467] | – | – | – | – | activated the oocyte-expressed receptor at about the same concentrations known to be effective for the native parathyroid cell receptor | binds to the calcium receptor at a different site (i.e., an allosteric site) than extracellular calcium | Robust increases in [Ca^2+ ]i
